test system: not given; experiment: not given; conditions: not given

| SMILES | melting point |
| --- | --- |
| CC(C)(CNC(=O)CO/N=C1\C[C@@H]2[C@H](CC[C@]3(C)[C@@H](O)CC[C@@H]23)c2ccc(O)cc21)SN=O [Example 41, 2-(((1S,11S,14S,15S,10R)-5,14-dihydroxy-15-methyltetracyclo(8.7.0.0<2,7>0.0<11,15>)heptadeca-2,4,6-trien-8-ylidene)azamethoxy)-N-(2-methyl-2-(nitrosothio)propyl)acetamide] | 145 to 150 °C |
| COc1ccc(/C=C/C(=O)Nc2ccccc2C(=O)OCC(=O)NCC(C)(C)SN=O)cc1OC [Example 1, (N-(2-Methyl-2-(nitrosothio)propyl)carbamoyl)methyl 2-((2E)-3-(3,4-dimethoxyphenyl)prop-2-enoylamino)benzoate] | 135 to 137 °C |
| CC(C)(S)CNC(=O)COc1ccc2c(c1)CC[C@@H]1[C@@H]2CC[C@]2(C)[C@@H](O)CC[C@@H]12 [Example 48, 2-((1S,11S,14S,15S,10R)-14-hydroxy-15-methyltetracyclo(8.7.0.0<2,7>0.0<11,15>)heptadeca-2,4,6-trien-5-yloxy)-N-(2-methyl-2-sulfanylpropyl)acetamide] | 50 to 52 °C |
| COc1ccc(C=C2c3ccccc3C(=NO)c3ccccc32)cc1O [Example 52, 5-((10-(Hydroxyimino)(9-anthrylidene))methyl)-2-methoxyphenol] | 140 °C |
| COc1ccc(C=C2c3ccccc3C(=O)c3ccccc32)cc1OCC(=O)N1CCC(CO[N+](=O)[O-])CC1 [Example 53, 2-(2-Methoxy-5-((10-oxo(9-anthrylidene))methyl)phenoxy)-1-(4-((nitrooxy)methyl)piperidyl)ethan-1-one] | 63 to 65 °C |
| C[C@]12CC[C@@H]3c4ccc(OCC(=O)OCCC5(S)C6CC7CC(C6)CC5C7)cc4CC[C@H]3[C@@H]1CC[C@@H]2O (stereo partly drawn) [Example 45, 2-(2-Sulfanyladamantan-2-yl)ethyl 2-((1S,11S,14S,15S,10R)-14-hydroxy-15-methyltetracyclo(8.7.0.0<2,7>0.0<11,15>)heptadeca-2,4,6-trien-5-yloxy)acetate] | 78 to 80 °C |
| C[C@]12CC[C@@H]3c4ccc(O)cc4/C(=N/OCC(=O)NCCO[N+](=O)[O-])C[C@H]3[C@@H]1CC[C@@H]2O | 140 °C (dec.) |
| C[C@]12CC[C@@H]3c4ccc(O)cc4/C(=N/OCC(=O)N4CCC(CCO[N+](=O)[O-])CC4)C[C@H]3[C@@H]1CC[C@@H]2O | 102 to 105 °C |
| CN(CCO[N+](=O)[O-])C(=O)CO/N=C1\C[C@@H]2[C@H](CC[C@]3(C)[C@@H](O)CC[C@@H]23)c2ccc(O)cc21 | 125 to 127 °C (dec.) |
| C[C@]12CC[C@@H]3c4ccc(OC(=O)COCC(=O)O[C@H]5CO[C@H]6[C@@H]5OC[C@H]6O[N+](=O)[O-])cc4CC[C@H]3[C@@H]1CC[C@@H]2O | 146 to 149 °C |
| CC(C)(SN=O)C1COC(=O)N1CCOC(=O)CO/N=C1\C[C@@H]2[C@H](CC[C@]3(C)[C@@H](O)CC[C@@H]23)c2ccc(O)cc21 (some centres unmarked) | 75 to 77 °C |
| C[C@]12CC[C@@H]3c4ccc(O)cc4/C(=N/OCC(=O)N4CCC(CO[N+](=O)[O-])CC4)C[C@H]3[C@@H]1CC[C@@H]2O | 143 to 145 °C |
| CC(C)(SN=O)C1COC(=O)N1CCOC(=O)COc1ccc2c(c1)CC[C@@H]1[C@@H]2CC[C@]2(C)[C@@H](O)CC[C@@H]12 (some centres unmarked) | 40 °C |
| C[C@]12CC[C@@H]3c4ccc(OC(=O)CCCC(=O)NCC5(SN=O)CCCCC5)cc4CC[C@H]3[C@@H]1CC[C@@H]2O | 50 to 52 °C |
| C[C@]12CC[C@@H]3c4ccc(OC(=O)c5ccccc5)cc4CC[C@H]3[C@@H]1CC[C@@H]2OC(=O)CCC(=O)OCCC1(S)C2CC3CC(C2)CC1C3 (some centres unmarked) | 140 to 143 °C |

test system: human coronary artery smooth muscle cells (CASMC); experiment: Vascular smooth muscle cell (SMC) antiproliferation assay; type: cell-based; conditions: Homo sapiens, viable cell count (Trypan Blue exclusion) ~68 hours after compound addition, n=4, read-out: IC 50 for the inhibition of proliferation of vascular smooth muscle cells, Nitrosated and/or Nitrosylated Compound
Protocol: Suppression of Proliferation of Human Coronary Artery Smooth Muscle Cells (CASMC)
Vascular Smooth Muscle Cell (SMC) Antiproliferation Assay
The cells used in this assay were human coronary artery smooth muscle cells (CASMC) supplied by Clonetics Corp. (San Diego, Calif.). They were maintained in SmGM-2 growth medium (Clonetics Corp.), which consisted of modified MCDB 131 medium supplemented with 5% (v/v) fetal bovine serum (FBS), 0.5 ng/mL human recombinant epidermal growth factor (EGF), 2 ng/mL human recombinant fibroblast growth factor (FGF), 5 μg/mL bovine insulin, 50 μg/mL gentamicin sulfate, and 50 ng/mL amphotericin B under humidified 95% air-5% CO2 at 37° C. Cells were used for experiments up to about 17 cumulative population doublings (i.e., passage 9); at this age they still stained positive for smooth muscle actin, a protein marker for smooth muscle cells.
For the SMC antiproliferation assay, the cells were seeded at 3×10^4 viable cells in 2 mL of SmGM-2 medium per well of a Corning 24 tissue culture well plate (Corning, N.Y.). Stock solutions of the test compounds were prepared just prior to addition to the cells by dissolving in DMSO at a concentration of 1000 times the highest concentration to be assayed. This stock solution was diluted, as required, with DMSO to lower concentrations. On the same day the cells were seeded, but after they had attached and spread out (about 3 hours), each test compound in varying concentrations (2 μL of the diluted stock solutions) was added to four replicate wells (n=4) for each concentration. Control cultures received 2 μL of DMSO per well (n=4). On the following morning, the cultures were examined microscopically and their condition recorded. On the third day after test compound addition (˜68 hours), the cultures were examined microscopically again and the viable cells counted with an hemacytometer following trypsinization with 0.25% trypsin-1 mM EDTA. Trypan Blue dye exclusion was used to discriminate between viable and dead cells. The results were usually presented as % of the control viable cell count (mean±SEM) and were used to determine the IC50 for the inhibition of proliferation of vascular smooth muscle cells.

| SMILES | IC50 [µM] |
| --- | --- |
| CC(C)(CNC(=O)CO/N=C1\C[C@@H]2[C@H](CC[C@]3(C)[C@@H](O)CC[C@@H]23)c2ccc(O)cc21)SN=O [Example 41, 2-(((1S,11S,14S,15S,10R)-5,14-dihydroxy-15-methyltetracyclo(8.7.0.0<2,7>0.0<11,15>)heptadeca-2,4,6-trien-8-ylidene)azamethoxy)-N-(2-methyl-2-(nitrosothio)propyl)acetamide] | 10 |
| C[C@]12CC[C@@H]3c4ccc(OC(=O)CCC(=O)OCCC5(SN=O)C6CC7CC(C6)CC5C7)cc4CC[C@H]3[C@@H]1CC[C@@H]2O (stereo partly drawn) [Example 25, (1S,11S,14S,15S,10R)-14-Hydroxy-15-methyltetracyclo(8.7.0.0<2,7>0.0<11,15>)heptadeca-2,4,6-trien-5-yl 2-(2-(nitrosothio)adamantan-2-yl)ethyl butane-1,4-dioate] | 4 |
| C[C@]12CC[C@@H]3c4ccc(OC(=O)c5ccccc5)cc4CC[C@H]3[C@@H]1CC[C@@H]2OC(=O)CCC(=O)O[C@H]1CO[C@H]2[C@@H]1OC[C@H]2O[N+](=O)[O-] [Example 15, (1S,11S,14S,15S,10R)-15-Methyl-5-phenylcarbonyloxytetracyclo(8.7.0.0<2,7>0.0<11,15>)heptadeca-2,4,6-trien-14-yl(1S,2S,5S,6R)-6-(nitrooxy)-4,8-dioxabicyclo(3.3.0)oct-2-yl butane-1,4-dioate] | > 80 |
| C[C@]12CC[C@@H]3c4ccc(OC(=O)CC5(SN=O)C6CC7CC(C6)CC5C7)cc4CC[C@H]3[C@@H]1CC[C@@H]2O (stereo partly drawn) [Example 18, (1S,11S,14S,15S,10R)-14-hydroxy-15-methyltetracyclo(8.7.0.0<2,7>0.0<11,15>)heptadeca-2,4,6-trien-5-yl 2-(2-(nitrosothio)adamantan-2-yl)acetate] | 9 |
| CC1(C)CCC(CCOC(=O)CCC(=O)Oc2ccc3c(c2)CC[C@@H]2[C@@H]3CC[C@]3(C)[C@@H](O)CC[C@@H]23)(SN=O)CC1 [Example 28i, (1S,11S,14S,15S,10R)-14-Hydroxy-15-methyltetracyclo(8.7.0.0<2,7>0.0<11,15>)heptadeca-2,4,6-trien-5-yl 2-(4,4-dimethyl-1-(nitrosothio)cyclohexyl)ethyl butane-1,4-dioate] | 13 |

same assay, conditions: viable cell count (Trypan Blue exclusion) ~68 hours after compound addition, n=4

| SMILES | IC 50 for the inhibition of proliferation of vascular smooth muscle cells, Non-nitrosated and/or Non-nitrosylated Compound | IC 50 for the inhibition of proliferation of vascular smooth muscle cells, Nitrosated and/or Nitrosylated Compound |
| --- | --- | --- |
| C[C@]12CC[C@@H]3c4ccc(OC(=O)CC5(S)C6CC7CC(C6)CC5C7)cc4CC[C@H]3[C@@H]1CC[C@@H]2OC(=O)C(F)(F)F (stereo partly drawn) [Example 17b, (1S,11S,14S,15S,10R)-15-methyl-5-(2-(2-sulfanyladamantan-2-yl)acetyloxy)tetracyclo(8.7.0.0<2,7>0.0<11,15>)heptadeca-2,4,6-trien-14-yl 2,2,2-trifluoroacetate] | cytostatic |  |
| CN(CCO[N+](=O)[O-])C(=O)CO/N=C1\C[C@@H]2[C@H](CC[C@]3(C)[C@@H](O)CC[C@@H]23)c2ccc(O)cc21 [35 b] |  | Non-inhibitory |
| C[C@]12CC[C@@H]3c4ccc(OC(=O)CC5(SN=O)C6CC7CC(C6)CC5C7)cc4CC[C@H]3[C@@H]1CC[C@@H]2OC(=O)C(F)(F)F (stereo partly drawn) [Example 17c, (1S,11S,14S,15S,10R)-15-Methyl-5-(2-(2-(nitrosothio)adamantan-2-yl)acetyloxy)tetracyclo(8.7.0.0<2,7>0.0<11,15>)heptadeca-2,4,6-trien-14-yl 2,2,2-trifluoroacetate] |  | Non-inhibitory |

same assay, conditions: viable cell count (Trypan Blue exclusion) ~68 hours after compound addition, n=4, read-out: IC 50 for the inhibition of proliferation of vascular smooth muscle cells, Non-nitrosated and/or Non-nitrosylated Compound

| SMILES | IC50 [µM] |
| --- | --- |
| C[C@]12CC[C@@H]3c4ccc(O)cc4C(=NOCC(=O)O)C[C@H]3[C@@H]1CC[C@@H]2O [Example 35a, 2-(((1S,11S,14S,15S,10R)-5,14-dihydroxy-15-methyltetracyclo(8.7.0.0<2,7>0.0<11-15>)heptadeca-2,4,6-trien-8-ylidene)azamethoxy)acetic acid, reference compound] | > 80 |
| CC(C)(S)CNC(=O)COc1ccc2c(c1)CC[C@@H]1[C@@H]2CC[C@]2(C)[C@@H](O)CC[C@@H]12 [Example 48, 2-((1S,11S,14S,15S,10R)-14-hydroxy-15-methyltetracyclo(8.7.0.0<2,7>0.0<11,15>)heptadeca-2,4,6-trien-5-yloxy)-N-(2-methyl-2-sulfanylpropyl)acetamide] | 11 |
| COc1ccc(C=C2c3ccccc3C(=NO)c3ccccc32)cc1O [Example 52, 5-((10-(Hydroxyimino)(9-anthrylidene))methyl)-2-methoxyphenol] | 0.6 |
| C[C@]12CC[C@@H]3c4ccc(OCC(=O)OCCC5(S)C6CC7CC(C6)CC5C7)cc4CC[C@H]3[C@@H]1CC[C@@H]2O (stereo partly drawn) [Example 45, 2-(2-Sulfanyladamantan-2-yl)ethyl 2-((1S,11S,14S,15S,10R)-14-hydroxy-15-methyltetracyclo(8.7.0.0<2,7>0.0<11,15>)heptadeca-2,4,6-trien-5-yloxy)acetate] | 8 |
| CC1(C)CCC(S)(CCOC(=O)CCC(=O)Oc2ccc3c(c2)CC[C@@H]2[C@@H]3CC[C@]3(C)[C@@H](O)CC[C@@H]23)CC1 [Example 28h, (1S,11S,14S,15S,10R)-14-hydroxy-15-methyltetracyclo(8.7.0.0<2,7>0.0<11,15>)heptadeca-2,4,6-trien-5-yl 2-(4,4-dimethyl-1-sulfanylcyclohexyl)ethyl butane-1,4-dioate] | 14 |
| C[C@]12CC[C@@H]3c4ccc(OC(=O)CC5(S)C6CC7CC(C6)CC5C7)cc4CC[C@H]3[C@@H]1CC[C@@H]2O (stereo partly drawn) [Example 49, (1S,11S,14S,15S,10R)-14-hydroxy-15-methyltetracyclo(8.7.0.0<2,7>0.0<11,15>)heptadeca-2,4,6-trien-5-yl 2-(2-sulfanyladamantan-2-yl)acetate] | 4 |
